# Activity calls are given as the source filed them. No cut-off for these calls is given here.
# Tests used:
# [1] = tested on: B16; test: Cytotoxicity against […] cells after 48 hrs by MTT assay; format: functional, cell-based; details: Mus musculus, B16, 48 h
# [2] = tested on: HT-29; test: Cytotoxicity against human HT-29 cells after 48 hrs by MTT assay; format: functional, cell-based; details: HT-29, 48 h
# [3] = tested on: MCF7; test: cells; details: Homo sapiens, MCF7, 48 h
# Description: Cytotoxicity against human MCF7 cells after 48 hrs by MTT assay
# [4] = tested on: HeLa; test: cells; details: Homo sapiens, 48 h
# Description: Cytotoxicity against human HeLa cells after 48 hrs by MTT assay
# [5] = tested on: HeLa; test: Cell cycle arrest in human HeLa cells assessed as accumulation at sub-G1 phase at 0.5 uM after 48 hrs by propidium iodide staining based flow cytometry (reference value: 0.9%); format: functional
# [6] = tested on: HeLa; test: Cell cycle arrest in human HeLa cells assessed as accumulation at G1 phase at 0.5 uM after 48 hrs by propidium iodide staining based flow cytometry (reference value: 62.5%); format: functional
# [7] = tested on: HeLa; test: Cell cycle arrest in human HeLa cells assessed as accumulation at S phase at 0.5 uM after 48 hrs by propidium iodide staining based flow cytometry (reference value: 11.3%); format: functional
# [8] = tested on: HeLa; test: Cell cycle arrest in human HeLa cells assessed as accumulation at G2/M phase at 0.5 uM after 48 hrs by propidium iodide staining based flow cytometry (reference value: 19.3%); format: functional
# [9] = target: Tubulin (Homo sapiens) (UniProt P68371+Q9H4B7+P0DPH7+P68366+Q13509+Q71U36+P04350+Q3ZCM7+P07437+P68363+Q9BQE3+Q6PEY2+Q13885+Q9BVA1+Q9BUF5); test: Inhibition of tubulin polymerization in human HeLa cells assessed as disrupted microtubule organization at 0.5 uM after 48 hrs by immunohistochemical analysis; format: cell-based
# [10] = species on record: Sus scrofa; test: Inhibition of porcine brain tubulin polymerization at 3 uM after 1 hr by fluorescence assay relative to control
# [11] = tested on: HeLa; test: Induction of apoptosis in human HeLa cells assessed as caspase-3 activation at 0.5 uM after 48 hrs by fluorimetric method relative to control; format: functional
# [12] = tested on: HeLa; test: Induction of apoptosis in human HeLa cells assessed as […] condensation at 0.5 uM after 48 hrs by Hoechst 33342 staining based fluorescent microscopic method; format: functional, cell-based
# [13] = tested on: HeLa; test: Induction of apoptosis in human HeLa cells assessed as nuclear fragmentation at 0.5 uM after 48 hrs by Hoechst 33342 staining based fluorescent microscopic method; format: functional, cell-based
structure (smiles),measurement,setting,value
COc1cc([C@@H]2c3cc4c(cc3[C@@H](NC(=O)Cn3cc(-c5ccccn5)nn3)[C@H]3COC(=O)[C@H]23)OCO4)cc(OC)c1OC,IC50,[1],19.5 µM
same,IC50,[2],18.4 µM
same,IC50,[3],14.5 µM
same,IC50,[4],23.6 µM
COc1cc([C@@H]2c3cc4c(cc3[C@@H](NC(=O)Cn3cc(-c5cccc(Cl)c5)nn3)[C@H]3COC(=O)[C@H]23)OCO4)cc(OC)c1OC,IC50,[1],23.6 µM
same,IC50,[2],17.5 µM
same,IC50,[3],38.2 µM
same,IC50,[4],28.4 µM
COc1cc([C@@H]2c3cc4c(cc3[C@@H](NC(=O)Cn3cc(-c5ccc(C(C)(C)C)cc5)nn3)[C@H]3COC(=O)[C@H]23)OCO4)cc(OC)c1OC,IC50,[1],10.6 µM
same,IC50,[2],18.6 µM
same,Activity,[5],0.2%
same,Activity,[6],12.5%
same,Activity,[7],10.1%
same,Activity,[8],63.3%
same,inhibition,[9],Active
same,inhibition,[10],46.4%
same,fold change (FC),[11],4 - 6
same,Activity,[12],Active
same,Activity,[13],Active
same,IC50,[3],11.3 µM
same,IC50,[4],0.9 µM
COc1cc([C@@H]2c3cc4c(cc3[C@@H](NC(=O)Cn3cc(-c5cccc(N)c5)nn3)[C@H]3COC(=O)[C@H]23)OCO4)cc(OC)c1OC,IC50,[1],22.5 µM
same,IC50,[2],15.6 µM
same,IC50,[3],21.9 µM
same,IC50,[4],25.4 µM
COc1ccc(-c2cn(CC(=O)N[C@@H]3c4cc5c(cc4[C@@H](c4cc(OC)c(OC)c(OC)c4)[C@H]4C(=O)OC[C@@H]43)OCO5)nn2)cc1OC,IC50,[1],22.4 µM
same,IC50,[2],13.9 µM
same,IC50,[3],15.8 µM
same,IC50,[4],17.9 µM
COc1cc([C@@H]2c3cc4c(cc3[C@H](O)[C@H]3COC(=O)[C@H]23)OCO4)cc(OC)c1OC [PODOFILOX],IC50,[1],2.12 µM
same,IC50,[2],1.26 µM
same,inhibition,[10],50.2%
same,Activity,[11],Active
same,IC50,[3],3.75 µM
same,IC50,[4],2.36 µM
COc1cc([C@@H]2c3cc4c(cc3[C@@H](NC(=O)Cn3cc(-c5ccc(C)cc5)nn3)[C@H]3COC(=O)[C@H]23)OCO4)cc(OC)c1OC,IC50,[1],23.5 µM
same,IC50,[2],22.5 µM
same,IC50,[3],17.1 µM
same,IC50,[4],16.8 µM
COc1ccc2cc(-c3cn(CC(=O)N[C@@H]4c5cc6c(cc5[C@@H](c5cc(OC)c(OC)c(OC)c5)[C@H]5C(=O)OC[C@@H]54)OCO6)nn3)ccc2c1,IC50,[1],14.3 µM
same,IC50,[2],13.6 µM
same,IC50,[3],6.9 µM
same,IC50,[4],15.4 µM
COc1cc([C@@H]2c3cc4c(cc3[C@@H](NC(=O)Cn3cc(-c5cccs5)nn3)[C@H]3COC(=O)[C@H]23)OCO4)cc(OC)c1OC,IC50,[1],18.2 µM
same,IC50,[2],19.5 µM
same,IC50,[3],8.9 µM
same,IC50,[4],6.5 µM
COc1cc([C@@H]2c3cc4c(cc3[C@@H](O[C@@H]3O[C@@H]5CO[C@@H](C)O[C@H]5[C@H](O)[C@H]3O)[C@H]3COC(=O)[C@H]23)OCO4)cc(OC)c1O [ETOPOSIDE],IC50,[1],1.85 µM
same,IC50,[2],1.98 µM
same,IC50,[3],1.36 µM
same,IC50,[4],2.24 µM
COc1cc([C@@H]2c3cc4c(cc3[C@@H](NC(=O)Cn3cc(-c5ccc(Br)cc5)nn3)[C@H]3COC(=O)[C@H]23)OCO4)cc(OC)c1OC,IC50,[1],10.1 µM
same,IC50,[2],0.1 µM
same,Activity,[5],0.1%
same,Activity,[6],13.9%
same,Activity,[7],10.5%
same,Activity,[8],62.7%
same,inhibition,[9],Active
same,inhibition,[10],48.5%
same,fold change (FC),[11],4 - 6
same,Activity,[12],Active
same,Activity,[13],Active
same,IC50,[3],0.9 µM
same,IC50,[4],0.07 µM
COc1cc([C@@H]2c3cc4c(cc3[C@@H](NC(=O)Cn3cc(CCC5C(=O)c6ccccc6C5=O)nn3)[C@H]3COC(=O)[C@H]23)OCO4)cc(OC)c1OC,IC50,[1],14.7 µM
same,IC50,[2],18.5 µM
same,IC50,[3],7.2 µM
same,IC50,[4],2.6 µM
COc1cc([C@@H]2c3cc4c(cc3[C@@H](NC(=O)Cn3cc(-c5ccccc5)nn3)[C@H]3COC(=O)[C@H]23)OCO4)cc(OC)c1OC,IC50,[1],21.5 µM
same,IC50,[2],20.1 µM
same,IC50,[3],8.1 µM
same,IC50,[4],19.6 µM
COc1cc([C@@H]2c3cc4c(cc3[C@@H](NC(=O)Cn3cc(-c5cncn5C)nn3)[C@H]3COC(=O)[C@H]23)OCO4)cc(OC)c1OC,IC50,[1],10.8 µM
same,IC50,[2],10.6 µM
same,IC50,[3],22.4 µM
same,IC50,[4],2.3 µM
